Activity calls are given as the source filed them. The calls are words filed in the database; no cut-off is given here.
Legend:
Thymidylate synthase [1] = molecular target: T1, Thymidylate synthase (Enterococcus faecalis (strain ATCC 700802 / V583), UniProt Q834R3); assay: Inhibition of Enterococcus faecalis thymidylate synthase using N5,N10-methylene tetrahydrofolate by chromogenic assay
T1 sequence (Q834R3 whole entry): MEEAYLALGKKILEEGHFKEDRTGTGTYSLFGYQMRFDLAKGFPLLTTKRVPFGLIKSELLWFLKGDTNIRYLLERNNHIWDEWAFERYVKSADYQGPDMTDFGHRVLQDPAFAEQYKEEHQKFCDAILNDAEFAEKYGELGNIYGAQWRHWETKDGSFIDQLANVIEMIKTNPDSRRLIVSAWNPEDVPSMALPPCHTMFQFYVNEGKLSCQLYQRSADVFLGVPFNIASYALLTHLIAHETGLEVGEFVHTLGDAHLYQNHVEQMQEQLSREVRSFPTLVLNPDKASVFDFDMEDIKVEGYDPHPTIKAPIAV

Thymidylate synthase [2] = molecular target: T2, Thymidylate synthase (Lactobacillus casei, UniProt P00469); assay: Inhibition of Lactobacillus casei thymidylate synthase using N5,N10-methylene tetrahydrofolate by chromogenic assay; design: species or system Lacticaseibacillus casei
T2 sequence (P00469 whole entry): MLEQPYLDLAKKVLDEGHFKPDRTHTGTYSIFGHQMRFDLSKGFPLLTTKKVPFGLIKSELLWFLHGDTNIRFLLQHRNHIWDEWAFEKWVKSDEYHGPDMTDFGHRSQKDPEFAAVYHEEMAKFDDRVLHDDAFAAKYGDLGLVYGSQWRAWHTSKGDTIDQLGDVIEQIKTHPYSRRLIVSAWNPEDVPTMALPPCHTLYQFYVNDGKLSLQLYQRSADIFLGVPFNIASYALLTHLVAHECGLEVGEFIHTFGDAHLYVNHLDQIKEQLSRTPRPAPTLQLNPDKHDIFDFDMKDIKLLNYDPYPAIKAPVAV

[3] = Inhibition of Escherichia coli thymidylate synthase using N5,N10-methylene tetrahydrofolate by chromogenic assay
Thymidylate synthase [4] = molecular target: T3, Thymidylate synthase (Homo sapiens, UniProt P04818); assay: Inhibition of human thymidylate synthase using N5,N10-methylene tetrahydrofolate at 50 uM by chromogenic assay
Target sequence in this assay (P04818 2-313 limits assumed): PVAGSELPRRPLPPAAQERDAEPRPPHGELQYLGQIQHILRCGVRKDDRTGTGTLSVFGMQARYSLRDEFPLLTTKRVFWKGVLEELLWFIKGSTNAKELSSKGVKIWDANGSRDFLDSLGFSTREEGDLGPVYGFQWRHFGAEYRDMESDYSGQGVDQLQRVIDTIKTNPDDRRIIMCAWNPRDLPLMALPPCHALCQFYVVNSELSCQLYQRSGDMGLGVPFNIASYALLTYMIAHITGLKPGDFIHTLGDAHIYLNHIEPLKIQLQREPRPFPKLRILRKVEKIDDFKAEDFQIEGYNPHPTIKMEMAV

[5] = molecular target: T4, Thymidylate synthase (Enterococcus faecalis (strain ATCC 700802 / V583)) (UniProt Q834R3); assay: Inhibition of Enterococcus faecalis thymidylate synthase using N5,N10-methylene tetrahydrofolate at 50 uM by chromogenic assay
T4 sequence (whole entry): T1 sequence (Q834R3 whole entry)

[6] = molecular target: T5, Thymidylate synthase (Lactobacillus casei) (UniProt P00469); assay: Inhibition of Lactobacillus casei thymidylate synthase using N5,N10-methylene tetrahydrofolate at 50 uM by chromogenic assay; conditions: Lacticaseibacillus casei
T5 sequence (whole entry): T2 sequence (P00469 whole entry)

Thymidylate synthase [7] = molecular target: T3, Thymidylate synthase
Target sequence in this assay (P04818 whole entry): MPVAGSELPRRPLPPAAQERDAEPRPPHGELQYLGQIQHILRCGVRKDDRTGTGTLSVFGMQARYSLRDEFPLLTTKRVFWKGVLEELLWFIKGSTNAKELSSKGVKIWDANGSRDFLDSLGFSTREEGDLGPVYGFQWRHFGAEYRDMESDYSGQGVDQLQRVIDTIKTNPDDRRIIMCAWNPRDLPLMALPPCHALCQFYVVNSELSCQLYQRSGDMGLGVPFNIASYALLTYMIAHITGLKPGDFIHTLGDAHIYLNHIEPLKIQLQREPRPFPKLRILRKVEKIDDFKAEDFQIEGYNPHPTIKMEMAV
Description: Inhibition of human thymidylate synthase using N5,N10-methylene tetrahydrofolate by chromogenic assay

SMILES | Ki (Thymidylate synthase [1]) | Ki (Thymidylate synthase [2]) | Ki [3] | inhibition (Thymidylate synthase [4]) | inhibition [5] | inhibition [6] | Ki (Thymidylate synthase [7])
COCCCNCc1cccc2c1C(=O)N(C)C2=O | 183 µM | 41 µM |  |  |  |  | 
Cc1cccc2c1C(=O)N(c1cc(-c3ccccc3)ccc1O)C2=O | 2 µM | 3 µM | 3 µM |  |  |  | 
CN1C(=O)c2cccc(CBr)c2C1=O |  | 95 µM |  | inactive | inactive |  | 
Cc1cccc2c1C(=O)N(c1cccc(O)c1)C2=O | 61 µM | 93 µM |  | inactive |  |  | 
Cc1cccc2c1C(=O)N(c1ccc(C(F)(F)F)cc1)C2=O | 60 µM | 14 µM | 18 µM | inactive |  |  | 
CCOC(=O)c1ccc(NCc2cccc3c2C(=O)N(C)C3=O)cc1 | 109 µM | 56 µM |  | inactive |  |  | 
Cc1cccc2c1C(=O)OC2=O |  |  | 49 µM | inactive | inactive | inactive | 
CC(=O)c1ccc(N2C(=O)c3cccc(C)c3C2=O)cc1 |  | 6 µM | 41 µM | inactive | inactive |  | 
Cc1cccc2c1C(=O)N(c1ccc(C(=N)N)cc1)C2=O |  | 9 µM |  | inactive | inactive |  | 
Cc1cccc2c1C(=O)N(c1ccnc(Cl)c1)C2=O | 7 µM | 23 µM | 111 µM | inactive |  |  | 
CN1C(=O)c2cccc(CNCCP(=O)(O)O)c2C1=O |  |  | 14 µM | inactive | inactive |  | 
Cc1cccc2c1C(=O)N(c1cccc3[nH]ccc13)C2=O | 26 µM | 25 µM |  | inactive |  |  | 
CN1C(=O)c2cccc(CNc3ccc(C#N)cc3)c2C1=O |  | 51 µM |  | inactive | inactive |  | 
CN1C(=O)c2cccc(CNc3ccc([N+](=O)[O-])c4ccccc34)c2C1=O |  | 10 µM | 92 µM | inactive | inactive |  | 
CN1C(=O)c2cccc(CNc3ccc(C(=O)O)cn3)c2C1=O |  | 27 µM |  | inactive | inactive |  | 
Cc1cc(N2C(=O)c3cccc(C)c3C2=O)ccc1N1C(=O)c2ccc(Cl)cc2C1=O |  | 36 µM | 33 µM | inactive | inactive |  | 
CN1C(=O)c2cccc(CNc3ccc(S(=O)(=O)O)cc3)c2C1=O |  | 33 µM | 42 µM |  | inactive |  | 
Cc1cccc2c1C(=O)N(c1nccs1)C2=O | 11 µM | 3 µM |  | inactive |  |  | 
CN1C(=O)c2cccc(CNc3cccc(S(N)(=O)=O)c3)c2C1=O |  | 38 µM |  | inactive | inactive |  | 
Cc1cccc2c1C(=O)N(c1ccc(C#N)cc1)C2=O | 8 µM | 22 µM | 31 µM | inactive |  |  | 
Cc1cccc2c1C(=O)N(c1cccc(C(=O)O)c1)C2=O |  | 69 µM |  |  | inactive |  | 
CN1C(=O)c2cccc(CNCCc3cccs3)c2C1=O |  |  | 61 µM | inactive | inactive |  | 
Cc1cccc2c1C(=O)N(c1ccc(C(=O)NCC(=O)O)cc1)C2=O | 11 µM | 3 µM | 42 µM |  |  |  | 
Cc1cccc2c1C(=O)N(c1cc(C(=O)O)cc(C(=O)O)c1)C2=O |  | 20 µM |  | inactive | inactive |  | 
O=C1OC(c2ccc(O)c(Cl)c2)(c2ccc(O)c(Cl)c2)c2cccc3cccc1c23 |  |  | 0.6 µM |  |  |  | 
Cc1cccc2c1C(=O)N(c1ccc(-n3ccnc3)cc1)C2=O | 33 µM | 34 µM |  |  |  |  | 206 µM
Cc1cccc2c1C(=O)N(c1ccc(C(=O)O)c(O)c1)C2=O |  | 14 µM | 36 µM |  | inactive |  | 
Cc1cccc2c1C(=O)N(CCc1cccs1)C2=O |  | 44 µM |  | inactive | inactive |  | 
CN1C(=O)c2cccc(CNc3ccc(C(=O)c4ccccc4)cc3)c2C1=O |  | 14 µM | 82 µM | inactive | inactive |  | 
